Tests used:
Assay in all cases: relative viability (nuclei count vs DMSO), 5 days (fraction); higher = more cells survive
[1] = compound: CCN(CCO)CCCC(C)Nc1ccnc2cc(Cl)ccc12 [Hydroxychloroquine]
Summary of the method: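 Viability was read as treated-well nuclei divided by vehicle-well nuclei, using the median across plates. Lung cancer cell lines in 1536-well plates were kept overnight at 37 °C, pinned with five √10-spaced library-drug doses, and after 5 days were Hoechst-stained, imaged at 4× and counted in MetaXpress. Plates passed only with control CV below 25% and at least one doubling.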

[2] = compound: CCN(CCO)CCCC(C)Nc1ccnc2cc(Cl)ccc12 [Hydroxychloroquine] + CC1(C)CCC(c2ccc(Cl)cc2)=C(CN2CCN(c3ccc(C(=O)NS(=O)(=O)c4ccc(N[C@H](CCN5CCOCC5)CSc5ccccc5)c(S(=O)(=O)C(F)(F)F)c4)cc3)CC2)C1 [Navitoclax] (partner 0.5 µM)
Summary of the method: (§1)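 Lung cancer cell lines in 1536-well plates got either a single drug or a fixed anchor-drug dose together with five library-drug doses (not always all listed) in √10 steps, by pin tool, on the day after seeding. Nuclei were counted after 5 days, and relative viability is the treated-to-vehicle ratio of nuclei counts. Values are medians of duplicate plates.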

[3] = compound: CCN(CCO)CCCC(C)Nc1ccnc2cc(Cl)ccc12 [Hydroxychloroquine] + Cc1cc(Nc2cc(N3CCN(C)CC3)nc(Sc3ccc(NC(=O)C4CC4)cc3)n2)n[nH]1 [Tozasertib] (partner 0.1 µM)
Summary of the method: as §1

[4] = compound: CCN(CCO)CCCC(C)Nc1ccnc2cc(Cl)ccc12 [Hydroxychloroquine] + N=C(N)NC(=N)NCCc1ccccc1 [Phenformin] (partner 250 µM)
Summary of the method: as §1

Row | Cell Line | relative viability ([1]; 0.5 µM) | relative viability ([1]; 1.581 µM) | relative viability ([1]; 5 µM) | relative viability ([1]; 15.81 µM) | relative viability ([1]; 50 µM) | relative viability ([2]; first compound 0.5 µM) | relative viability ([2]; first compound 1.581 µM) | relative viability ([2]; first compound 5 µM) | relative viability ([2]; first compound 15.81 µM) | relative viability ([2]; first compound 50 µM) | relative viability ([3]; first compound 0.5 µM) | relative viability ([3]; first compound 1.581 µM) | relative viability ([3]; first compound 5 µM) | relative viability ([3]; first compound 15.81 µM) | relative viability ([3]; first compound 50 µM) | relative viability ([4]; first compound 0.5 µM) | relative viability ([4]; first compound 1.581 µM) | relative viability ([4]; first compound 5 µM) | relative viability ([4]; first compound 15.81 µM) | relative viability ([4]; first compound 50 µM)
1 | COR-L23 | 1.06 | 1.17 | 1.16 | 1.08 | 1.03 | 1.03 | 0.926 | 1.24 | 1.31 | 1.12 | 0.191 | 0.218 | 0.267 | 0.209 | 0.225 | 0.445 | 0.467 | 0.496 | 0.49 | 0.485
2 | COR-L 105 | 0.875 | 0.935 | 0.876 | 0.804 | 0.864 | 0.595 | 0.747 | 0.778 | 0.816 | 0.594 | 0.353 | 0.349 | 0.376 | 0.376 | 0.333 | 0.529 | 0.476 | 0.497 | 0.351 | 0.447
3 | ChaGo-K-1 | 0.958 | 1.07 | 0.911 | 1.01 | 1.03 | 1.22 | 0.685 | 0.687 | 1.06 | 1 | 0.224 | 0.18 | 0.222 | 0.228 | 0.233 | 0.509 | 0.542 | 0.438 | 0.501 | 0.522
4 | EKVX | 0.962 | 0.902 | 0.893 | 1.02 | 1.01 | 1.1 | 0.919 | 1.07 | 1.04 | 0.943 | 0.401 | 0.316 | 0.38 | 0.374 | 0.494 | 0.249 | 0.192 | 0.249 | 0.243 | 0.208
5 | EMC-BAC-2 | 1.05 | 0.824 | 0.953 | 1.02 | 0.912 | 1.17 | 1.23 | 1.17 | 1.17 | 1.36 | 0.307 | 0.289 | 0.31 | 0.286 | 0.258 | 0.543 | 0.385 | 0.497 | 0.523 | 0.503
6 | EPLC-272H | 0.963 | 0.843 | 0.98 | 0.94 | 1.08 | 1.19 | 1.07 | 1.28 | 1.24 | 1.29 | 0.262 | 0.152 | 0.26 | 0.257 | 0.287 | 0.267 | 0.312 | 0.273 | 0.309 | 0.241
7 | H3255 | 0.982 | 0.946 | 0.974 | 0.951 | 0.951 | 0.56 | 0.422 | 0.546 | 0.522 | 0.635 | 0.687 | 0.558 | 0.682 | 0.796 | 0.677 | 0.332 | 0.368 | 0.326 | 0.356 | 0.313
8 | HARA | 1.23 | 0.938 | 0.876 | 1 | 0.903 | 1.14 | 1.15 | 1.14 | 1.2 | 1.12 | 0.221 | 0.0946 | 0.0888 | 0.11 | 0.099 | 0.475 | 0.406 | 0.519 | 0.442 | 0.465

From the supplement of paper PMC10307832
